Laboratory results from patent US10231956B2, “3-(1H-pyrrolo[3,2-C]pyridin-2-YL)-1 H-pyrazolo[4,3-B]pyridines and therapeutic uses thereof” (Samumed, LLC, priority 2015, dated 2019).

Assays:
Format in all cases: cell-based
SW480 colon cancer cells = experiment: Cell viability assay (CellTiter-Blue) in SW480 colon cancer cells; conditions: Homo sapiens, 96 h, four days, CellTiter-Blue
Description: Representative compounds were screened using the following assay procedure to assess the effect on cell viability as described below.
Each compound was dissolved in DMSO as a 10 mM stock and used to prepare compound source plates. Serial dilution (1:3, 8-point dose-response curves from 10 μM to 0.0045 μM) and compound transfer was performed using the ECHO 550 (Labcyte, Sunnyvale, Calif.) into 96-well clear bottom, black-walled plates (Corning-Costar).
Approximately 2×10^3 SW480 colon cancer cells were seeded into each well and allowed to incubate in the presence or absence of compound for four days at 37° C./5% CO2. Eight replicates of DMSO-treated cells served as controls and cells treated with compound were performed in duplicate.
After incubation, 20 μL of CellTiter-Blue (Promega) was added to each well allowed to incubate for approximately 3 hours. This reagent was a buffered solution which contains resazurin, metabolically active cells were able to reduce rezarurin (blue) into resorufin (pink) which was highly fluorescent. This measured fluorescence was used as a readout for cell viability.
After incubation, the plates were read at Ex 560 nm Em 590 nm (Cytation 3, BioTek). Dose-response curves were generated and EC50 concentration values were calculated using non-linear regression curve fit in the GraphPad Prism (San Diego, Calif.) or Dotmatics' Studies Software (Bishops Stortford, UK). For EC50 of >10 μM, the percent inhibition at 10 μM is provided.

[1] = system: Wnt activity (Sp5-Luc reporter, SW480 colon carcinoma cells); experiment: Sp5-Luc reporter gene screening assay for Wnt activity in SW480 cells; conditions: Homo sapiens, luminescence, overnight incubation
Description: The screening assay for Wnt activity is described as follows. Reporter cell lines can be generated by stably transducing cancer cell lines (e.g., colon cancer) or primary cells (e.g., IEC-6 intestinal cells) with a lentiviral construct that includes a Wnt-responsive promoter driving expression of the firefly luciferase gene.
SW480 colon carcinoma cells were transduced with a lentiviral vector expressing luciferase with a human Sp5 promoter consisting of a sequence of eight TCF/LEF binding sites. SW480 cells stably expressing the Sp5-Luc reporter gene and a hygromycin resistance gene were selected by treatment with 150 μg/mL of hygromycin for 7 days. These stably transduced SW480 cells were expanded in cell culture and used for all further screening activities. Each compound was dissolved in DMSO as a 10 mM stock and used to prepare compound source plates. Serial dilution (1:3, 10-point dose-response curves starting from 10 μM) and compound transfer was performed using the ECHO 550 (Labcyte, Sunnyvale, Calif.) into 384-well white solid bottom assay plates (Greiner Bio-One) with appropriate DMSO backfill for a final DMSO concentration of 0.1%. For Sp5-Luc reporter gene assays, the cells were plated at 4,000 cells/well in 384-well plates with medium containing 1% fetal bovine serum and incubated overnight at 37° C. and 5% CO2. Following incubation, 20 μl of BrightGlo luminescence reagent (Promega) was added to each well of the 384-well assay plates. The plates were placed on an orbital shaker for 2 min and then luminescence was quantified using the Envision (Perkin Elmer) plate reader. Readings were normalized to DMSO only treated cells, and normalized activities were utilized for EC50 calculations using the dose-response log (inhibitor) vs. response-variable slope (four parameters) nonlinear regression feature available in GraphPad Prism 5.0 (or Dotmatics). For EC50 of >10 μM, the percent inhibition at 10 μM is provided.

IL-6 = IL-6 inhibition in LPS-stimulated THP-1 cells (HTRF); conditions: Homo sapiens, LPS 500 ng/mL, 22 hours, IL6 HTRF
Description: Human Monocyte Cell Culture: Human monocyte cell line (THP-1 cells; Catalog # TIB-202, ATCC, Manassas, Va.) were cultured in Roswell Park Memorial Institute (RPMI) 1640 Medium (Catalog #21870-100, Buffalo, N.Y.) with 1% L-glutamine, 1% HEPES, 1% Sodium Pyruvate, 2% Sodium Bicarbonate supplemented with 100 units/mL penicillin, 50 μg/mL streptomycin, 2-mercaptoethanol (0.05 mM) [basal medium] and 10% fetal bovine serum (Catalog #16140089, Life Technologies, Carlsbad, Calif.) at 37° C. and 5% CO2.
Compound Screening: THP-1 cells were cultured in basal media with 1% FBS for 24 hours before the start of the assay. Each compound was dissolved in DMSO as a 10 mM stock and used to prepare compound source plates. Serial dilution (1:3, 10-point dose-response curves starting from 1 μM) and compound transfer was performed using the ECHO 550 (Labcyte, Sunnyvale, Calif.) into 384-well white low volume assay plates (Greiner Bio-One) with appropriate DMSO backfill for a final DMSO concentration of 0.1%. THP-1 cells were plated at 5000 cells/well in the 384-well plates and incubated at 37° C. for 2 h. 500 ng/mL of LPS was added after 2 hours and cells were incubated for another 22 hours at 37° C. Plates were spun in a centrifuge for 1 minute at 10,000 rpm and a mixture of anti-IL6 XL665, and anti-IL6 Cryptate diluted in reconstitution buffer (Cisbio Inc.) was added to each well. Following incubation for 3 hrs at room temperature, Homogeneous Time-Resolved Fluorescence (HTRF) was measured using the Envision (Perkin Elmer) at 665 nm and […]. The ratio of fluorescence at 665 nm to 620 nm was used as a readout for IL6 quantification. All samples were processed in duplicate. Readings were normalized to DMSO treated cells and normalized activities were utilized for EC50 calculations using the dose-response log (inhibitor) vs. response-variable slope (four parameters) nonlinear regression feature available in GraphPad Prism 5.0 (or Dotmatics). For EC50 of >10 μM, the percent inhibition at 10 μM is provided.

[2] = system: primary human fibroblasts derived from IPF patients (LL29 cells); experiment: Inhibition of fibrotic process: αSMA staining in TGF-β1 treated LL29 fibroblasts; conditions: Fibroblast, 96 h, TGF-β1 20 ng/mL, 4 days, % cells positive for αSMA
Description: Representative compounds were screened using primary human fibroblasts (derived from IPF patients) treated with TGF-β1 to determine their ability to inhibit the fibrotic process.
Human Fibroblast Cell Culture: Primary human fibroblasts derived from IPF patients (LL29 cells) [^1Xiaoqiu Liu, et. al., “Fibrotic Lung Fibroblasts Show Blunted Inhibition by cAMP Due to Deficient cAMP Response Element-Binding Protein Phosphorylation”, Journal of Pharmacology and Experimental Therapeutics (2005), 315(2), 678-687; ^2Watts, K. L., et. al., “RhoA signaling modulates cyclin D1 expression in human lung fibroblasts; implications for idiopathic pulmonary fibrosis”, Respiratory Research (2006), 7(1), 88] were obtained from American Type Culture Collection (ATCC) and expanded in F12 medium supplemented with 15% Fetal Bovine Serum and Penicillin/Streptomycin.
Compound Screening: Each compound was dissolved in DMSO as a 10 mM stock and used to prepare compound source plates. Serial dilution (1:2, 11-point dose-response curves from […]) and compound transfer was performed using the ECHO 550 (Labcyte, Sunnyvale, Calif.) into 384-well clear bottom assay plates (Greiner Bio-One) with appropriate DMSO backfill for a final DMSO concentration of 0.1%. LL29 cells are plated at 1,500 cells/well in 80 μL/well F12 medium supplemented with 1% Fetal Bovine Serum. One hour after addition of the cells, TGF-β1 (Peprotech; 20 ng/mL) was added to the plates to induce fibrosis (ref. 1 and 2 above). Wells treated with TGF-β1 and containing DMSO were used as controls. Cells were incubated at 37° C. and 5% CO2 for 4 days. Following incubation for 4 days, SYTOX green nucleic acid stain (Life Technologies [Thermo Fisher Scientific]) was added to the wells at a final concentration of 1 μM and incubated at room temperature for 30 min. Cells were then fixed using 4% formaldehyde (Electron Microscopy Sciences), washed 3 times with PBS followed by blocking and permeabilization using 3% Bovine Serum Albumin (BSA; Sigma) and 0.3% Triton X-100 (Sigma) in PBS. Cells were then stained with antibody specific to α-smooth muscle actin (αSMA; Abcam) (ref. 1 and 2 above) in 3% Bovine Serum Albumin (BSA; Sigma) and 0.3% Triton X-100 (Sigma) in PBS, and incubated overnight at 4° C. Cells were then washed 3 times with PBS, followed by incubation with Alexa Flor-647 conjugated secondary antibody (Life Technologies [Thermo Fisher Scientific]) and DAPI at room temperature for 1 hour. Cells were then washed 3 times with PBS and plates were sealed for imaging. αSMA staining was imaged by excitation at 630 nm and emission at 665 nm and quantified using the Compartmental Analysis program on the CellInsight CX5 (Thermo Scientific). Dead or apoptotic cells were excluded from analysis based on positive SYTOX green staining. % of total cells positive for αSMA were counted in each well and normalized to the average of 11 wells treated with TGF-β1 on the same plate using Dotmatics' Studies Software. The normalized averages (fold change over untreated) of 3 replicate wells for each compound concentration were used to create dose-responses curves and EC50 values were calculated using non-linear regression curve fit in the Dotmatics' Studies Software. For EC50 of >10 μM, the percent inhibition at 10 μM is provided.

EC50 (SW480 colon cancer cells) [nM] | EC50 [1] [nM] | EC50 (IL-6) [nM] | SMILES | EC50 [2] [nM]
2620 | 4860 | 118 | CC(C)(C)C(=O)Nc1cncc(-c2ccc3[nH]nc(-c4cc5c(-c6cccc(F)c6)nccc5[nH]4)c3n2)c1 [Compound 8, N-(5-(3-(4-(3-Fluorophenyl)-1H-pyrrolo[3,2-c]pyridin-2-yl)-1H-pyrazolo [4,3-b]pyridin-5-yl)pyridin-3-yl)pivalamide] | 1080
2590 | 3470 | 7700 | Fc1ccc(-c2nccc3[nH]c(-c4n[nH]c5ccc(-c6ccccn6)nc45)cc23)cc1 [Compound 56, 3-(4-(4-Fluorophenyl)-1H-pyrrolo[3,2-c]pyridin-2-yl)-5-(pyridin-2-yl)-1H-pyrazolo[4,3-b]pyridine] | 1310
737 | 716 | 88 | O=C(Nc1cncc(-c2ccc3[nH]nc(-c4cc5c(-c6cccnc6)nccc5[nH]4)c3n2)c1)C1CCCC1 [Compound 106, N-(5-(3-(4-(Pyridin-3-yl)-1H-pyrrolo[3,2-c]pyridin-2-yl)-1H-pyrazolo[4,3-b]pyridin-5-yl)pyridin-3-yl)cyclopentanecarboxamide] | 1320
1660 | 4490 | 9200 | c1cc(-c2nccc3[nH]c(-c4n[nH]c5ccc(-c6cncc(CNCC7CCCC7)c6)nc45)cc23)ccn1 [Compound 137, 1-Cyclopentyl-N-((5-(3-(4-(pyridin-4-yl)-1H-pyrrolo[3,2-c]pyridin-2-yl)-1H-pyrazolo[4,3-b]pyridin-5-yl)pyridin-3-yl)methyl)methanamine] | 3240
3570 | 3510 | 418 | CN1CCN(c2nccc3[nH]c(-c4n[nH]c5ccc(-c6cncc(NC(=O)CC(C)(C)C)c6)nc45)cc23)CC1 [Compound 240, 3,3-Dimethyl-N-(5-(3-(4-(4-methylpiperazin-1l-yl)-1H-pyrrolo[3,2-c]pyridin-2-yl)-1H-pyrazolo[4,3-b]pyridin-5-yl)pyridin-3-yl)butanamide] | 1010
1190 | 3710 | 9070 | c1cc2[nH]c(-c3n[nH]c4ccc(-c5cncc(CNCC6CCCC6)c5)nc34)cc2c(-c2ccoc2)n1 [Compound 333, 1-Cyclopentyl-N-((5-(3-(4-(furan-3-yl)-1H-pyrrolo[3,2-c]pyridin-2-yl)-1H-pyrazolo[4,3-b]pyridin-5-yl)pyridin-3-yl)methyl)methanamine] | 714
577 | 1100 | 5380 | Cc1ccncc1-c1ccc2[nH]nc(-c3cc4c(-c5cccs5)nccc4[nH]3)c2n1 [Compound 341, 5-(4-Methylpyridin-3-yl)-3-(4-(thiophen-2-yl)-1H-pyrrolo[3,2-c]pyridin-2-yl)-1H-pyrazolo[4,3-b]pyridine] | 621
1520 | 2680 | 2750 | c1csc(-c2nccc3[nH]c(-c4n[nH]c5ccc(-c6cncnc6)nc45)cc23)c1 [Compound 363, 5-(Pyrimidin-5-yl)-3-(4-(thiophen-2-yl)-1H-pyrrolo[3,2-c]pyridin-2-yl)-1H-pyrazolo[4,3-b]pyridine] | 529
4120 | 8320 | 1520 | Fc1cccc(-c2nccc3[nH]c(-c4n[nH]c5ccc(C6CCNCC6)nc45)cc23)c1 [Compound 505, 3-(4-(3-Fluorophenyl)-1H-pyrrolo[3,2-c]pyridin-2-yl)-5-(piperidin-4-yl)-1H-pyrazolo[4,3-b]pyridine] | 2710
555 | 1010 | 9020 | c1cc2[nH]c(-c3n[nH]c4ccc(-c5cncc(OC6CCCCC6)c5)nc34)cc2c(-c2ccoc2)n1 [Compound 687, 5-(5-(Cyclohexyloxy)pyridin-3-yl)-3-(4-(furan-3-yl)-1H-pyrrolo[3,2-c]pyridin-2-yl)-1H-pyrazolo[4,3-b]pyridine] | 452
